In US20060293390A1 (priority 2003, published 2006):
“And” between values parts separate entries of the source, which are not always exact repeats. Identical values can stand only once.

Experiments:
[1] = system: bladder cancer cell line RT112; assay: Apoptosis: cytoplasmic histone-associated DNA fragments, photometric enzyme immunoassay (FIG. 1); type: cell-based, human
Protocol: FIG. 1: FIG. 1 is a representation of apoptosis measurements with a bladder cancer cell line RT112. […] Besides the control measurements without Diflunisal, there is also a “positive” control (CAM) registered with a defined calibrated system. Apoptosis was measured by determination of cytoplasmic histone-associated DNA fragments (mono- and oligonucleosomes) after induced cell death. The qualitative and quantitative in vitro determination of apoptosis in RT112 tumor cells was analyzed with a photometric enzyme immunoassay. In brief, RT112 cells were harvested, washed twice and resuspended in culture media to yield a density of 2.5×10^5/ml. 100 μl/well of the RT112 cell suspension were seeded into 96 well microtiter plates (obtainable from BECTON DICKINSON) and incubated overnight at 37° C. and 5% CO2. The supernatant was replaced by 90 μl pH-adjusted culture medium alone (control). Again, the cells were incubated for various time periods at 37° C. and 5% CO2. Supernatants of the cell cultures were discarded and RT112 cells were lysed in lysis buffer for 30 minutes at RT (25° C.). The cytoplasmic fractions were transferred into a streptavidin-coated microtiter plate, and the working procedure for the ELISA was performed according to the manufacturer's instructions (the ELISA test was obtained from BOEHRINGER […], Germany). […] But there is also a superimposed part of the third level.

leukemia cell line K-562 = assay: Pore formation: PI-stained dead cells by flow cytometry (FIG. 2); type: cell-based, human
Protocol: FIG. 2: FIG. 2 is a representation of pore formation under conditions of interstitial albumin concentration of 0.2 mM. […] The dead cell fraction compared to the total cell number is measured in a flow cytometer. The experiments were conducted with the leukemia cell line K-562. […] Of minor interest is the second pore formation process starting at pH 6.4, because this process functions beyond the acidity milieu of most tumors. […] Pore formation was measured by determination of the necrotic cells measured by flow cytometry. Cultures of the leukemia cell line K-562 were harvested, and 5×10^5 cells were added into 6 ml tubes (BD). After centrifugation (250×g; 5 min; room temperature (25° C.)) the cells were resuspended in 900 μl pH-adjusted culture medium (pH 6.0-7.4; RPMI 1640 without NaHCO3; available from SIGMA). Then test substances were added to the samples and cells were incubated in a final volume of 1 ml at 37° C. in a water bath. After the incubation period the pH of the samples was measured, and the cells were washed and resuspended in 300 μl FACS medium (PBS+2% FCS and 0.1% NaN3). Cells were stained with propidium iodide (PI; available form SIGMA; 25 μl/25 μg/tube) for 15 minutes at RT (25° C.). Subsequently analysis of the stained cells was performed on an EPICS XL-MCL flow cytometer (available from COULTER, Krefeld, Germany), equipped with a 15 mW argon laser at an excitation wavelength of 488 nm. PI fluorescence was measured in the red channel (FL3; 620 nm longpass filter). Data acquisition and analysis was performed using XL-System II software (available from the company COULTER). It can be seen that Diflunisal causes pH-dependent pore formation in cancer cells.

[2] = system: bladder cancer cell line RT112; assay: Lactate transport: enzymatic determination of lactate in supernatants (FIG. 3); type: cell-based, human
Protocol: There is plotted a control measurement which indicates lactate efflux in dependence of pH and without any Diflunisal influence. […] The lactate transport was measured by qualitative enzymatic determination of lactate in supernatants of RT112 cells at 340 nm. RT112 cells were harvested, washed twice and resuspended in culture media to yield a density of 2×10^5/ml. 500 μl/well of the RT112 cell suspension were seeded into 24 well microtiter plates (BD) and incubated overnight at 37° C. and 5% CO2. The supernatant was replaced by 450 μl pH-adjusted culture medium (pH 6.0-7.4) and 50 μl of the solution of preferred substances or 500 μl/well pH-adjusted culture medium alone (control). Again, the cells were incubated for 24 h at 37° C. and 5% CO2. The measurement of lactate in the supernatants at 340 nm (PERKIN-ELMER, Lambda 17. UV-VIS Spectrophotometer, Überlingen, Germany) was performed according to the manufacturer's instructions (SIGMA DIAGNOSTICS, Deisenhofen, Germany; Lactate: Quantitative, Enzymatic Determination of Lactate in Whole Blood at 340 nm (Procedure No. 826-UV)).

RT112 cells = assay: Respiration: mitochondrial activity, XTT assay (FIG. 4); type: cell-based, human
Protocol: This behavior reflects the apoptosis induction from the second affinity level of albumin. Increasing the concentrations higher than 1.0 mM also the whole respiration activity within the pH range 7.0-7.4 is diminished and falls to 0 at 1.5 mM. The same is true with concentrations up to 2.0 mM. This effect is introduced by apoptosis at pH 7.0-7.4, accelerated by the third and fourth affinity level of albumin. […] The mitochondrial activity of RT112 was determined using a colorimetric assay (XTT assay). […] The mitochondrial succinate-tetrazolium reductase system cleaves the tetrazolium salt XTT to formazan. The amount of this dye is directly correlated to the number of metabolically active cells, as the enzyme system is only active in respirating and viable cells. For this purpose, RT112 cells were harvested, washed twice and resuspended in culture media to yield a density of 2.5×10^5/ml. 100 μl/well of the RT112 cell suspension were seeded into 96 well microtiter plates (BECTON DICKINSON (BD), Heidelberg, Germany) and incubated overnight at 37° C. and 5% CO2. The supernatant was replaced by 90 μl pH-adjusted culture medium (pH 6.0-7.4) and 10 μl of preferred substances or 100 μl/well pH-adjusted culture medium alone (control). The cells were incubated for various time periods at 37° C. and 5% CO2. Thereafter, cells were washed twice and reincubated in fresh pH-adjusted culture medium. After the incubation period, pH of each well was determined with highly sensitive microelectrodes before 50 μl XTT labeling mixture was added. The cells were further incubated for additional 4 h at 37° C. and 5% CO2. The spectrophotometric absorbance of the samples was measured using a microtiter plate (ELISA) reader ([…], Denkendorf, Germany) at a wavelength of […] (630 nm as reference). Data acquisition and analysis was performed using BioLinx 2.1 software ([…]).

[3] = Resorption of orally administered Diflunisal: concentration in blood / interstitial milieu; type: in vivo
[4] = system: colon and colorectal cancer; details: cited from earlier work
[5] = 1.0 mM Diflunisal, 0.06 mM albumin, third affinity level
[6] = 3 Diflunisal molecules bound to albumin, 0.17 mM albumin
[7] = 1.0 mM Diflunisal, 0.2 mM albumin
[8] = ratio 6:1 Diflunisal to albumin

Question: With `O=C(O)c1cc(-c2ccc(F)cc2F)ccc1O` [Diflunisal, 5-(2,4-difluorophenyl)salicylic acid] as the compound, how does the “pH at which apoptosis ends” value [1, 5] read?
Answer: 7.4 pH

Question: What about the “pH at which apoptosis starts” value [1, 5] of the same compound?
Answer: 7.0 pH

Question: And the “pH range in which apoptosis occurs” value ([1]; 4 to 6 Diflunisal bound to albumin)?
Answer: 6.0-7.2 pH

Question: And the “pH range in which apoptosis is achieved” value ([1]; Diflunisal/albumin ratio 7-9, 0.17 mM albumin)?
Answer: 7.0-7.4 pH

Question: And the “starting pH of the second pore formation process” value (leukemia cell line K-562; 0.2 mM albumin)?
Answer: 6.4 pH

Question: What about the “pH of pore formation, third affinity level of albumin” value (leukemia cell line K-562; 1.25 mM to 1.5 mM Diflunisal, 0.2 mM albumin) of the same compound?
Answer: ≤ 7.0 pH

Question: And the “pH at which pore formation happens” value (leukemia cell line K-562; [6])?
Answer: < 6.5 pH

Question: And the “interstitial concentration from which pore formation starts in a therapy-relevant pH range” value (leukemia cell line K-562; FIG. 2, 0.2 mM albumin)?
Answer: ≥ 1.25 mM

Question: What about the “pH at which pore formation can be produced” value (leukemia cell line K-562; cancer cell suspensions, flow cytometer) of the same compound?
Answer: < 7.0 pH

Question: And the “starting pH of a third transport system (fourth affinity level of albumin)” value (leukemia cell line K-562; not shown in FIG. 2)?
Answer: 7.2-7.3 pH

Question: And the “interstitial Diflunisal concentration at which pore formation starts” value (leukemia cell line K-562; pH<7.0)?
Answer: about 0.7 mM

Question: What about the “pH range of lactate antiport” value [2, 6] of the same compound?
Answer: 6.6-7.4 pH

Question: And the “pH range in which lactate efflux is remarkably enhanced” value ([2]; FIG. 3, against control without Diflunisal)?
Answer: 6.0 to 7.2 pH

Question: And the Diflunisal/lactate antiport ([2]; three Diflunisal bound to albumin, first affinity stage)?
Answer: no antiport happens

Question: And the “pH at which deviation from normal respiration activity reaches its maximum” value (RT112 cells; [7])?
Answer: ~6.9 pH

Question: And the “pH at which inhibition of respiration activity starts” value (RT112 cells; [7])?
Answer: ~7.2 pH

Question: What about the “respiration activity within pH range 7.0-7.4” value (RT112 cells; 1.5 mM Diflunisal (same up to 2.0 mM), 0.2 mM albumin) of the same compound?
Answer: 0

Question: And the “pH range of the new respiration blockade effect” value (RT112 cells; 7 to 9 Diflunisal to albumin)?
Answer: 7.0-7.4 pH

Question: And the “blockade of the respiration chain” value (RT112 cells; ratio 4:1 Diflunisal to albumin)?
Answer: significant increase in activity

Question: And the “pH range in which the blockade effect declines to ineffectiveness” value (RT112 cells; [8])?
Answer: 6.9 to 7.2 pH

Question: And the “pH up to which the respiration blockade reaches an optimum” value (RT112 cells; [8])?
Answer: ≤ 6.9 pH

Question: And the “blockade of the respiration chain” value (RT112 cells; three bound Diflunisal molecules per albumin)?
Answer: no substantial blockade

Question: And the concentration in blood ([3]; 100 mg/kg administered orally)?
Answer: ≤ 1000 µM

Question: And the “dose at which the saturation concentration is reached” value ([3]; oral administration)?
Answer: 50 mg/kg

Question: What about the “saturation concentration in blood” value ([3]; oral administration) of the same compound?
Answer: 250 µg/mL

Question: And the “saturation concentration (resorption saturation)” value ([3]; oral administration, converted from 250 μg/ml)?
Answer: 1.00 mM and 1.0 mM

Question: What about the interstitial concentration ([3]; patient treatments, 1000 mg/day, Diflunisal to albumin ratio <2:1) of the same compound?
Answer: < 0.3 mM

Question: What about the “active concentration of Diflunisal” value ([4]; Life Science 70, 2001, 37-48) of the same compound?
Answer: suprapharmacological and intrinsically cytotoxic

Question: What about the cancer cell kill ([4]; patient treatments, 1000 mg/day) of the same compound?
Answer: no cancer cell kill takes place
